Assay results: patent US20230148005A1, “MACROCYCLIC COMPOUNDS AND USES THEREOF” (THESEUS PHARMACEUTICALS, INC., priority 2020, published 2023)
Where two headings read alike, the source gives them in different places.

What was measured:
Ba/F3 Parental = experiment: Ba/F3 viability assay (CellTiter-Glo), parental; type: cell-based
From the text: (§1) Inhibition of cell proliferation can be studied using Ba/F3 viability assays, including the Promega CellTiter-Glo cell viability assay. This assay can be used to study the effect of compounds described herein in the following assays: (1) Ba/F3 Parental; (2) Ba/F3 EGFR-Del19/T790M; (3); Ba/F3 EGFR-Del19/C797S; and (4) Ba/F3 EGFR-Del19/T790M/C797S.

Ba/F3 EGFR-Del19/T790M = Ba/F3 EGFR-Del19/T790M (Homo sapiens, UniProt P00533, T790M, cells depend on it, form not given); experiment: Ba/F3 viability assay (CellTiter-Glo), DT; type: cell-based; conditions: anti-proliferation, read-out: BaF3 DT IC50
Sequence of Ba/F3 EGFR-Del19/T790M (P00533 with tags, fused parts or gaps DEL746-750/T790M, form open): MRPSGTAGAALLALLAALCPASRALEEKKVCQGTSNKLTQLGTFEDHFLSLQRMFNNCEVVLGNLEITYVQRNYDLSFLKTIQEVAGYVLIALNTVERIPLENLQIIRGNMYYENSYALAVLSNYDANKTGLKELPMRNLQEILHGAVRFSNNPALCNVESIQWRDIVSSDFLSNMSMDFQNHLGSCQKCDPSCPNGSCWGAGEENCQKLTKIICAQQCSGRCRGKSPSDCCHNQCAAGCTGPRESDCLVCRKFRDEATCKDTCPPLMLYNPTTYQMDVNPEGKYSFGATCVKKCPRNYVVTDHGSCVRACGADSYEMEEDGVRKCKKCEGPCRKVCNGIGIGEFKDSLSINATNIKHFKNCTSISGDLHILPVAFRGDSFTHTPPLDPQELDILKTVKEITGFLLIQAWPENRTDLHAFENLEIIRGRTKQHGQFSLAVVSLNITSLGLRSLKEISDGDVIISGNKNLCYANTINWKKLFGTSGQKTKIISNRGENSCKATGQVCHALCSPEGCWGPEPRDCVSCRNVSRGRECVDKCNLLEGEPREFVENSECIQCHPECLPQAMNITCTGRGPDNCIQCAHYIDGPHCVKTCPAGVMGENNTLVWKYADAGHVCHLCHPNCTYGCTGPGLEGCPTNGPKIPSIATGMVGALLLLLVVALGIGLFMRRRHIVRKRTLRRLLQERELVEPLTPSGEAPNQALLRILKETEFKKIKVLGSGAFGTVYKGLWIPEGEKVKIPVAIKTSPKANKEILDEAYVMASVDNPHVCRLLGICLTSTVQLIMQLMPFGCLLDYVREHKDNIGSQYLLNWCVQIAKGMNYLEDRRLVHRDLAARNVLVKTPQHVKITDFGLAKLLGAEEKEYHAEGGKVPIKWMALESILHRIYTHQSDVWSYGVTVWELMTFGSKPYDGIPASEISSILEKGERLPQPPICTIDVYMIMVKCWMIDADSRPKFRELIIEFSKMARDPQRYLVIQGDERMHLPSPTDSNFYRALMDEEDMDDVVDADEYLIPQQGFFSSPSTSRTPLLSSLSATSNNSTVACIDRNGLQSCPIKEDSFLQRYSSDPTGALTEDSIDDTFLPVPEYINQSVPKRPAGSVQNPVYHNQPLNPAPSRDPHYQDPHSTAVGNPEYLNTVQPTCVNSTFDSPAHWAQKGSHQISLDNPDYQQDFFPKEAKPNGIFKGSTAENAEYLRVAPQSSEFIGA
From the text: as §1

[1] = target: Ba/F3 EGFR-Del19/T790M/C797S (Homo sapiens, UniProt P00533, T790M/C797S, cells depend on it, form not given); experiment: Ba/F3 viability assay (CellTiter-Glo), DTC; type: cell-based; conditions: anti-proliferation, read-out: BaF3 DTC IC50
Sequence of Ba/F3 EGFR-Del19/T790M/C797S (P00533 with tags, fused parts or gaps DEL746-750/T790M/C797S, form open): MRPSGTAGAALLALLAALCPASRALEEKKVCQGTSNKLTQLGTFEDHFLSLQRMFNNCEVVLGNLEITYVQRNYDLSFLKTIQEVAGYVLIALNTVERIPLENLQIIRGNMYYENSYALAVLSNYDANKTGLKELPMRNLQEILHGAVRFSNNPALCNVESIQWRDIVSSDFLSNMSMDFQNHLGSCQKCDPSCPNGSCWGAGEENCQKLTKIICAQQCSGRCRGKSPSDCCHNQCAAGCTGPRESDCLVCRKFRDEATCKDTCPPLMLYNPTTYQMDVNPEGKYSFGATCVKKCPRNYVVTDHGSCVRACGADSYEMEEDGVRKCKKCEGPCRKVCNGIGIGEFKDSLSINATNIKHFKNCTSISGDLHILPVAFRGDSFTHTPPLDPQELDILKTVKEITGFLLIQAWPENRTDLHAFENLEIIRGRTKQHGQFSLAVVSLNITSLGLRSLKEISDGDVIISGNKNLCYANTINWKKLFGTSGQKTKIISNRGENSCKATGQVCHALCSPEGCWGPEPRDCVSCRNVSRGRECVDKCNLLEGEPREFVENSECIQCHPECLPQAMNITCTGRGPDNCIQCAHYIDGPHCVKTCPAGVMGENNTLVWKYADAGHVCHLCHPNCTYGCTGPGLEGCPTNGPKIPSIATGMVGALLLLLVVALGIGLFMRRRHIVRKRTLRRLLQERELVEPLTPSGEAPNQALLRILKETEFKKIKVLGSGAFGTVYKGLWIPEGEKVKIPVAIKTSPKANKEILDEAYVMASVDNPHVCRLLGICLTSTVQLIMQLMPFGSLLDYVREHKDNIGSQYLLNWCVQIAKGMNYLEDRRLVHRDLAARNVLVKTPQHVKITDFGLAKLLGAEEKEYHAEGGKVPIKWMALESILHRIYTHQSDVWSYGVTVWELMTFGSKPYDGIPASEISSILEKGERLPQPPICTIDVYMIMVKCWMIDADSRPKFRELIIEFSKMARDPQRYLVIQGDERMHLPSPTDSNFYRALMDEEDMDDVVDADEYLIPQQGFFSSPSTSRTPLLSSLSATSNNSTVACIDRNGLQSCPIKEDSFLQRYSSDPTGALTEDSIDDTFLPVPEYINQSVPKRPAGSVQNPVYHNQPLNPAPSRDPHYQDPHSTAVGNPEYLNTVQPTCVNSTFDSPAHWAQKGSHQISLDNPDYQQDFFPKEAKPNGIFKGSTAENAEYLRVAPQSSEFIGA
From the text: as §1

EGFR^L858R = EGFR^L858R (Homo sapiens, UniProt P00533, L858R); experiment: in vitro kinase assay (HTRF KinEASE-TK kit), L; type: biochemical; conditions: kinase inhibition
From the text: (§2) Assays using an in vitro kinase assay kit (HTRF KinEASE-TK kit) can be used to study the inhibitory activity of compounds described herein with respect to EGFR mutants such as EGFR^L858R, EGFR^L58R/T790M, and EGFR^L858R/T790M/C^797S.

EGFR^L858R/T790M/C^797S = EGFR^L858R/T790M/C^797S (Homo sapiens, UniProt P00533, C797S/L858R/T790M); experiment: in vitro kinase assay (HTRF KinEASE-TK kit), LTC; type: biochemical; conditions: kinase inhibition
Sequence of EGFR^L858R/T790M/C^797S (P00533 25-1210 T790M/C797S/L858R): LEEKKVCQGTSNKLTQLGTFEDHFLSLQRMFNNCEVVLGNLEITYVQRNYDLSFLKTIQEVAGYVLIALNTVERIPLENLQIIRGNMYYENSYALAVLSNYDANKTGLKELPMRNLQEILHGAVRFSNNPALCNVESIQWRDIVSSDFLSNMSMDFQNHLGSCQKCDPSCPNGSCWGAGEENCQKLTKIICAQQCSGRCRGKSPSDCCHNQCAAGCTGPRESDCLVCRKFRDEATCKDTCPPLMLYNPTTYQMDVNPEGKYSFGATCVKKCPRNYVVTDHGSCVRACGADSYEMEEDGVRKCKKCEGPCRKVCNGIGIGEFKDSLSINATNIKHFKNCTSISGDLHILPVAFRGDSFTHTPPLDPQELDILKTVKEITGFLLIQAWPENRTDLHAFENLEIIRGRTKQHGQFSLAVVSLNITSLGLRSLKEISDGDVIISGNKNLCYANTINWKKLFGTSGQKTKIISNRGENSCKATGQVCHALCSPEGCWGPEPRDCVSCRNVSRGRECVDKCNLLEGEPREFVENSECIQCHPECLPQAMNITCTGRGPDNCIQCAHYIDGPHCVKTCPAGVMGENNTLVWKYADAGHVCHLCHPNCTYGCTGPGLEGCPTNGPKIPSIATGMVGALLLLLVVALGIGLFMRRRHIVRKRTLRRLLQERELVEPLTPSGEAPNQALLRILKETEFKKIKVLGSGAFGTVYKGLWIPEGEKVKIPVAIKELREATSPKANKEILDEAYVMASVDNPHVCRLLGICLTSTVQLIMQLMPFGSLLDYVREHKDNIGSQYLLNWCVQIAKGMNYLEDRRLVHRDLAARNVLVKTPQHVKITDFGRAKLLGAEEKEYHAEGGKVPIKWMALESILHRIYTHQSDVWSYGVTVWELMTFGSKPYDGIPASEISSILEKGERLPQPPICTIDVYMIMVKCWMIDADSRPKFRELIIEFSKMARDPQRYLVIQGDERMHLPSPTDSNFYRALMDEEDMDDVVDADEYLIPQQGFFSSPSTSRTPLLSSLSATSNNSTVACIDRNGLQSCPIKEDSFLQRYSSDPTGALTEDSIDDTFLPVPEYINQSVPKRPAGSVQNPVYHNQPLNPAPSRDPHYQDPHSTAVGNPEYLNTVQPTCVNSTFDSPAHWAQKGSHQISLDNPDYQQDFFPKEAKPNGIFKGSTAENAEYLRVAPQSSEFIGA
From the text: as §2

Ba/F3 EGFR-Del19/C797S = Ba/F3 EGFR-Del19/C797S (Homo sapiens, UniProt P00533, C797S, cells depend on it, form not given); experiment: Ba/F3 viability assay (CellTiter-Glo), DC; type: cell-based; conditions: anti-proliferation, read-out: BaF3 DC IC50
Sequence of Ba/F3 EGFR-Del19/C797S (P00533 with tags, fused parts or gaps DEL746-750/C797S, form open): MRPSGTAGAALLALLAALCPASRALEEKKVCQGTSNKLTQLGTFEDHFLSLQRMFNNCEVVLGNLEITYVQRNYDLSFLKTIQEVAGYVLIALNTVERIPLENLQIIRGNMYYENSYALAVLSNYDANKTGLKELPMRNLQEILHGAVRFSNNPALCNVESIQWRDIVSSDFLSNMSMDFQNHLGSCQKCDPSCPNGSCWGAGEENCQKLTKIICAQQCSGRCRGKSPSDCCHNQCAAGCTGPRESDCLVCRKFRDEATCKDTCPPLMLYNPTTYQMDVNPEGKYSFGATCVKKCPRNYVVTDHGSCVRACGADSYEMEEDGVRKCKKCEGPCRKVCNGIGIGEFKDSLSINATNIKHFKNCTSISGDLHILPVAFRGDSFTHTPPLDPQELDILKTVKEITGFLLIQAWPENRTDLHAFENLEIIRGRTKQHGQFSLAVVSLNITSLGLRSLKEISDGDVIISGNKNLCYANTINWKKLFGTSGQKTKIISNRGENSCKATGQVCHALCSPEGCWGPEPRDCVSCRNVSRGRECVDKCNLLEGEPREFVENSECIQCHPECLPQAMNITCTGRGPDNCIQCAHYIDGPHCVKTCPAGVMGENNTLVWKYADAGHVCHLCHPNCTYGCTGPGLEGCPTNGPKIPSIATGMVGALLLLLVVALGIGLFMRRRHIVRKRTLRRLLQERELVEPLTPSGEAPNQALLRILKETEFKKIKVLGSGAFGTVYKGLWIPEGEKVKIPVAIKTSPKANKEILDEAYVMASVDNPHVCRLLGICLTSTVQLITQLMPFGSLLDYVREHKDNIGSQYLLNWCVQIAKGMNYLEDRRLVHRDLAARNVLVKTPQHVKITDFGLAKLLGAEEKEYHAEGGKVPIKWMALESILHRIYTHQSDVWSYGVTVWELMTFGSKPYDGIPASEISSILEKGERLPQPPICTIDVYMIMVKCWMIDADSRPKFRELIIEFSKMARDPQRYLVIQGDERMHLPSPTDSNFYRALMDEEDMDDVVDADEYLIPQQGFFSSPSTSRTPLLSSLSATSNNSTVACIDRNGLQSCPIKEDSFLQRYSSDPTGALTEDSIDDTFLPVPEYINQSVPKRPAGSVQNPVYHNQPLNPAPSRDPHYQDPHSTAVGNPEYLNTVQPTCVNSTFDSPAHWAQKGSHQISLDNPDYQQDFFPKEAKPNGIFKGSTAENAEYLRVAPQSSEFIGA
From the text: as §1

EGFR^L58R/T790M = EGFR^L58R/T790M (Homo sapiens, UniProt P00533, L858R/T790M); experiment: in vitro kinase assay (HTRF KinEASE-TK kit), LT; type: biochemical; conditions: kinase inhibition
From the text: as §2

[2] = Mus musculus, BaF3, anti-proliferation

| IC50 (EGFR^L858R) [µM] | IC50 (EGFR^L858R/T790M/C^797S) [µM] | IC50 (EGFR^L58R/T790M) [µM] | Compound | IC50 (Ba/F3 Parental; [2]) [µM] | GI50 (Ba/F3 EGFR-Del19/T790M) [µM] | GI50 [1] [µM] | GI50 (Ba/F3 EGFR-Del19/C797S) [µM] | IC50 (Ba/F3 Parental; anti-proliferation, read-out: BaF3 parental IC50) [µM] |
| --- | --- | --- | --- | --- | --- | --- | --- | --- |
| 0.1 to 1 | < 0.01 | < 0.01 | Cn1ncc2c1OCCCn1nc(N3CCCC3CO)c3cnc(cc31)Nc1ccnc-2n1 (stereo not shown) [(62)] | 0.1 to 1 | 0.1 to 1 | 0.1 to 1 | 0.1 to 1 |  |
| < 0.01 | < 0.01 | < 0.01 | CC1CCOc2c(cnn2C)-c2nccc(n2)Nc2cc3c(cn2)c(-c2ccc(CN4CCN(C)CC4)o2)nn31 (stereo not shown) [(63), 11,16-dimethyl-19-[5-[(4-methylpiperazin-1-yl)methyl]-2-furyl]-13-oxa-2,6,10,11,17,18,22,25-octazapentacyclo[15.5.2.13,7.08,12.020,24]pentacosa-1(22),3,5,7(25),8(12),9,18,20,23-nonaene] | 0.1 to 1 | 0.01 to 0.1 | 0.01 to 0.1 | < 0.01 |  |
| 0.01 to 0.1 | < 0.01 | < 0.01 | CC1CCOc2c(cnn2C)-c2nccc(n2)Nc2cc3c(cn2)c(-c2cnn(C4CC4)c2)nn31 (stereo not shown) [(64)] | 0.1 to 1 | 0.01 to 0.1 | 0.01 to 0.1 | 0.01 to 0.1 |  |
| 0.1 to 1 | < 0.01 | < 0.01 | Cn1ncc2c1OCCCn1nc(N3CCCC3C(=O)O)c3cnc(cc31)Nc1ccnc-2n1 (stereo not shown) [(65)] | 0.1 to 1 | 0.1 to 1 | 0.1 to 1 | 0.1 to 1 |  |
| 0.01 to 0.1 | < 0.01 | < 0.01 | CN1CCN(C(=O)C2CCN(c3nn4c5cc(ncc35)Nc3ccnc(n3)-c3cnn(C)c3OCCC4)C2)CC1 (stereo not shown) [(66)] | ≥ 1 | 0.1 to 1 | 0.1 to 1 | 0.1 to 1 |  |
| 0.01 to 0.1 | < 0.01 | < 0.01 | CC1CCOc2c(cnn2C)-c2nccc(n2)Nc2cc3c(cn2)c(-c2ccn(C)n2)nn31 (stereo not shown) [(69)] | ≥ 1 | 0.01 to 0.1 | 0.01 to 0.1 | 0.01 to 0.1 |  |
| < 0.01 | < 0.01 | < 0.01 | C[C@H]1CCOc2c(cnn2C)-c2nccc(n2)Nc2cc3c(cn2)c(N2CCC2)nn31 [(70)] |  | < 0.01 | 0.01 to 0.1 | 0.01 to 0.1 | 0.1 to 1 |
| < 0.01 | < 0.01 | < 0.01 | CC1CCCOc2c(cnn2C)-c2nccc(n2)Nc2cc3c(cn2)c(N2CCCC2)nn31 (stereo not shown) [(71)] | 0.1 to 1 | 0.01 to 0.1 | 0.01 to 0.1 | 0.01 to 0.1 |  |
| 0.1 to 1 | < 0.01 | < 0.01 | CC(C)n1ncc2c1OCCCC(C)n1nc(N3CCC3)c3cnc(cc31)Nc1ccnc-2n1 (stereo not shown) [(74)] | ≥ 1 | 0.1 to 1 | 0.1 to 1 | 0.1 to 1 |  |
| 0.01 to 0.1 | < 0.01 | < 0.01 | CC1CCCOc2c(cnn2C)-c2nccc(n2)Nc2cc3c(cn2)c(-c2ccnn2C)nn31 (stereo not shown) [(75)] | 0.1 to 1 | 0.01 to 0.1 | 0.01 to 0.1 | 0.01 to 0.1 |  |
| < 0.01 | < 0.01 | < 0.01 | CCn1cc(-c2nn3c4cc(ncc24)Nc2ccnc(n2)-c2cnn(C)c2OCCC3C)cc1CN1CCN(C)CC1 (stereo not shown) [(76)] | 0.01 to 0.1 | < 0.01 | < 0.01 | < 0.01 |  |

The next lines start with the compound.

| Compound | IC50 (EGFR^L858R) [µM] | IC50 (EGFR^L858R/T790M/C^797S) [µM] | IC50 (EGFR^L58R/T790M) [µM] | IC50 (Ba/F3 Parental; [2]) [µM] | GI50 (Ba/F3 EGFR-Del19/T790M) [µM] | GI50 [1] [µM] | GI50 (Ba/F3 EGFR-Del19/C797S) [µM] | IC50 (Ba/F3 Parental; anti-proliferation, read-out: BaF3 parental IC50) [µM] |
| --- | --- | --- | --- | --- | --- | --- | --- | --- |
| CC1CCCOc2c(cnn2C)-c2nccc(n2)Nc2cc3c(cn2)c(N2CCC2)nn31 (stereo not shown) [(1)] | < 0.01 | < 0.01 | < 0.01 | 0.1 to 1 | < 0.01 | < 0.01 | 0.01 to 0.1 |  |
| CC1CCOc2c(cnn2CC2CC2)-c2nccc(n2)Nc2cc3c(cn2)c(N2CCC2)nn31 (stereo not shown) [(2)] | 0.01 to 0.1 | < 0.01 | < 0.01 | 0.1 to 1 | 0.01 to 0.1 | 0.01 to 0.1 | 0.01 to 0.1 |  |
| Cn1ncc2c1OCCCn1nc(N3CCC3)c3cnc(cc31)Nc1ccnc-2n1 [(3)] | 0.01 to 0.1 | < 0.01 | < 0.01 | 0.1 to 1 | 0.01 to 0.1 | 0.1 to 1 | 0.1 to 1 |  |
| Cn1ncc2c1OCCC(C)(C)n1nc(N3CCC3)c3cnc(cc31)Nc1ccnc-2n1 [(4), 19-(azetidin-1-yl)-11,16,16-trimethyl-13-oxa-2,6,10,11,17,18,22,25-octazapentacyclo[15.5.2.1^3,7.0^8,12.0^20,24]pentacosa-1(22),3,5,7(25),8(12),9,18,20,23-nonaene] | 0.1 to 1 | < 0.01 | < 0.01 | ≥ 1 | 0.1 to 1 | 0.1 to 1 | 0.1 to 1 |  |
| CCC1CCOc2c(cnn2C)-c2nccc(n2)Nc2cc3c(cn2)c(N2CCC2)nn31 (stereo not shown) [(5)] | 0.01 to 0.1 | < 0.01 | < 0.01 | ≥ 1 | 0.01 to 0.1 | 0.01 to 0.1 | 0.01 to 0.1 |  |
| CC1COc2c(cnn2C)-c2nccc(n2)Nc2cc3c(cn2)c(N2CCC2)nn3C1 (stereo not shown) [(6)] | 0.01 to 0.1 | < 0.01 | < 0.01 | 0.1 to 1 | 0.01 to 0.1 | 0.01 to 0.1 | 0.01 to 0.1 |  |
| CC1CCOc2c(cnn2C)-c2nccc(n2)Nc2cc3c(cn2)c(N2CC(C(C)(C)O)C2)nn31 (stereo not shown) [(8)] | 0.01 to 0.1 | < 0.01 | < 0.01 | 0.1 to 1 | 0.01 to 0.1 | 0.01 to 0.1 | 0.01 to 0.1 |  |
| CN1CCN(CC2CCCN2c2nn3c4cc(ncc24)Nc2ccnc(n2)-c2cnn(C)c2OCCC3)CC1 (stereo not shown) [(10)] | 0.1 to 1 | < 0.01 | < 0.01 | 0.1 to 1 | 0.1 to 1 | 0.1 to 1 | 0.1 to 1 |  |
| CN(C)CC1CCCN1c1nn2c3cc(ncc13)Nc1ccnc(n1)-c1cnn(C)c1OCCC2 (stereo not shown) [(11)] | 0.1 to 1 | < 0.01 | < 0.01 | 0.1 to 1 | 0.1 to 1 | 0.1 to 1 | 0.1 to 1 |  |
| CC1CCOc2c(cnn2C)-c2nccc(n2)Nc2cc3c(cn2)c(-c2cccn2CCN(C)C)nn31 (stereo not shown) [(12), 2-[2-(11,16-dimethyl-13-oxa-2,6,10,11,17,18,22,25-octazapentacyclo[15.5.2.13,7.08,12.020,24]pentacosa-1(22),3,5,7(25),8(12),9,18,20,23-nonaen-19-yl)pyrrol-1-yl]-N,N-dimethyl-ethanamine] | 0.01 to 0.1 | < 0.01 | < 0.01 | 0.1 to 1 | 0.01 to 0.1 | 0.01 to 0.1 | 0.01 to 0.1 |  |
| CN(C)CC1CCN(c2nn3c4cc(ncc24)Nc2ccnc(n2)-c2cnn(C)c2OCCC3)C1 (stereo not shown) [(13)] | 0.01 to 0.1 | < 0.01 | < 0.01 | 0.1 to 1 | 0.01 to 0.1 | 0.01 to 0.1 | 0.1 to 1 |  |
| CC1CCOc2ccncc2-c2nccc(n2)Nc2cc3c(cn2)c(N2CCC2)nn31 (stereo not shown) [(14), 20-(azetidin-1-yl)-17-methyl-14-oxa-2,6,10,18,19,23,26-heptazapentacyclo[16.5.2.13,7.08,13.021,25]hexacosa-1(23),3,5,7(26),8(13),9,11,19,21,24-decaene] | < 0.01 | < 0.01 | < 0.01 | 0.01 to 0.1 | < 0.01 | < 0.01 | < 0.01 |  |
| CC1CCOc2c(cnn2C)-c2nccc(n2)Nc2cc3c(cn2)c(N2CC(C(=O)N(C)C)C2)nn31 (stereo not shown) [(16)] | 0.01 to 0.1 | < 0.01 | < 0.01 | 0.1 to 1 | 0.01 to 0.1 | 0.01 to 0.1 | 0.01 to 0.1 |  |
| CC1CCOc2c(cnn2C)-c2nccc(n2)Nc2cc3c(cn2)c(N2CCC2)nn31 (stereo not shown) [(33), 17-(azetidin-1-yl)-20,27-dimethyl-30-oxa-21,22,23,24,25,26,27,28-octazapentacyclopentacosa-2,4(14),5(22),6(23),12(24),13(15),16(18),17(25),19(21)-nonaene] | 0.01 to 0.1 | < 0.01 | < 0.01 | ≥ 1 | 0.01 to 0.1 | 0.01 to 0.1 | 0.01 to 0.1 |  |
| CN1CCN(CC2CCN(c3nn4c5cc(ncc35)Nc3ccnc(n3)-c3cnn(C)c3OCCC4)C2)CC1 (stereo not shown) [(57)] | 0.01 to 0.1 | < 0.01 | < 0.01 | 0.1 to 1 | 0.01 to 0.1 | 0.01 to 0.1 | 0.01 to 0.1 |  |
| CC1CCCCOc2c(cnn2C)-c2nccc(n2)Nc2cc3c(cn2)c(N2CCC2)nn31 (stereo not shown) [(58)] | 0.01 to 0.1 | < 0.01 | < 0.01 | ≥ 1 | 0.01 to 0.1 | 0.01 to 0.1 | 0.01 to 0.1 |  |
| COC(=O)C1CCCN1c1nn2c3cc(ncc13)Nc1ccnc(n1)-c1cnn(C)c1OCCC2 (stereo not shown) [(61)] | 0.1 to 1 | 0.01 to 0.1 | < 0.01 | ≥ 1 | 0.1 to 1 | 0.1 to 1 | 0.1 to 1 |  |
